Results on 4 molecules are retold here after US20230250172A1, “IMPLANTABLE SCAFFOLDS AND USES THEREOF FOR IMMUNOTHERAPY AND OTHER USES” (The Regents of the University of California, priority 2019, published 2023).

Entries after “also recorded” stand apart in the source; their conditions may differ.

The subject of experiment [1] is formation of regulatory T cells (Treg), Foxp3 expression. In words: in vitro inhibition of Treg formation (2D). The experiment is classed as cell-based, mouse. The protocol:
For Treg formation experiments CD4+ T cells were purified from mouse spleen as mentioned above. Cells were then either activated on scaffolds or on anti-CD3e antibody ([…]) coated plates with the anti-CD28 antibody ([…]) supplemented medium. At the same time transforming growth factor-beta (TGF-beta; TGF-β) (15 ng/ml) was added to the media. After four days regulatory T cells were removed and stained with antibodies for flow cytometry analysis.
For Treg formation experiments CD4+ T cells were purified from mouse spleen as mentioned above. Cells were then either activated on scaffolds or on anti-CD3e antibody (8 μg/mL) coated plates with the anti-CD28 antibody (2 μg/mL) supplemented medium. At the same time TGF-β (15 ng/mL) was added to the media. After four days regulatory T cells were removed, fixed, permeabilized, and stained with antibodies for flow cytometric analysis of Foxp3 expression.

A further experiment addresses TGF-beta receptor (TβR). As to conditions: reported IC50 value (FIG. 13B); cited from earlier work.
The test system of experiment [2] is B16-F10-Ova melanoma tumors. In words: melanoma model, cell-free scaffold implanted adjacent to tumor. The experiment is classed as in vivo, mouse. Conditions: for T cell recruitment and tumor clearance compared to control scaffolds: chemokine in full scaffold. The text has this: 2-5×10^5 (2-5×105) B16F10-OVA tumor cells were subcutaneously injected into right or both (in the contralateral tumor model) right and left flanks of C57BL/6J WT mice (6-8 weeks old). These melanoma-derived cells are transfected to express chicken ovalbumin peptide (OVA)34. Five days after tumor cell injection, scaffolds were surgically implanted subcutaneously into the same approximate region of the tumors in both flanks. For cell-loaded studies, ex vivo activated OT-I T cells were transferred either intravenously using retro-orbital injections (100 microliters [μL] per animal) or implantable scaffolds at the same day. Tumor size was assessed over time using a digital caliber until day 22 at which animals were sacrificed and the tumor, draining lymph nodes, and spleen were extracted. Tumor mass was measured using a digital balance before digesting the tumor tissue for flow cytometry or fixing it for tissue sectioning. Tumors were digested by incubating in collagenase and DNase I (50 micrograms/mL [μg/mL]) at 37° C. for 15 min. These enzymes were inactivated with ethylenediamine tetra-acetic acid (EDTA) (20 microliters/mL [μL/mL] of solution). […] Tissue sections were imaged by a fluorescence microscope (KEYENCE™ BZ-X800, Osaka, Japan).
Typically, mice received subcutaneous injections of B16-F10 cells to their right flank followed by the scaffold implantation adjacent to the tumor once it was palpable. Without any further treatment animal's health was monitored and were euthanized 17 days afterwards. […]
2-5×10^5 B16F10-OVA or B16F10 tumor cells were subcutaneously injected into right or both (in the contralateral tumor model) right and left flanks of wild-type C57BL/6J WT mice (6-8 weeks old, Jackson Lab). […] Tumor size was assessed over time using a digital caliper until day 22 at which animals were sacrificed and the tumor, draining lymph nodes, and spleen were extracted.
Tumor masses were measured using a digital balance before digesting the tumor tissue for flow cytometry or fixing it for tissue sectioning. […]

Another experiment deals with B16F10-OVA tumor cells. In words: Transwell migration assay of tumor cells. In kind it is cell-based, mouse. Conditions: hydrogels containing CCL21; 8 h. The protocol:
The migration assay to evaluate the role of chemokines on recruitment of T cells and melanoma cancer in the presence and absence of magnetic particles was performed using regular Transwell migration (Majedi, F. S. et al. Cytokine Secreting Microparticles Engineer the Fate and the Effector Functions of T-Cells. Adv. Mater. 30, 1703178 (2018)). […]
The migration assay to evaluate the role of chemokines on recruitment of T cells and melanoma cells in the presence and absence of chemokine-functionalized scaffolds was performed using regular Transwell migration as reported. […]

For orientation: IC50 means the midpoint of a concentration-inhibition curve.

As for `Cc1cccc(-c2nn3c(c2-c2ccnc4ccc(C(N)=O)cc24)CCC3)n1` [LY2157299, galunisertib], in experiment [1] (2D, aAPCs, soluble TGF-β in media, soluble TGFbi 10 uM or PLGA NPs with equivalent amount), the Treg formation suppressed result is reported as “about 40%”. In addition, the “potency in suppressing Treg formation” value in experiment [1] (at 1 nM concentrations, versus SB505124) was “about twice as potent as SB505124”.
Turning to `Cc1cccc(-c2[nH]c(C(C)(C)C)nc2-c2ccc3c(c2)OCO3)n1` [SB505124], on TGF-beta receptor (TβR), the IC50 was 129 nM.
For the molecule “CXCL12: stromal cell-derived factor 1 chemokine, used in the scaffold instead of CCL21”, in experiment [2], the “T cell recruitment and tumor clearance compared to control scaffolds” value was “successfully recruited T cells and helped clear tumors”.

B1: CCL21: chemokine (C-C motif) ligand 21, chemoattractant mixed into the scaffold (protein)
chain: SDGGGQDCCLKYSQKKIPYSIVRGYRKQEPSLGCPIPAILFSPRKHSKPELCANPEEGWVQNLMRRLDQPPAPGKQSPGCRKNRGTSKSGKKGKGSKGCKRTEQTQPSRG
Take B1: the “recruitment of tumor cells (chemotaxis)” value in the experiment with B16F10-OVA tumor cells is “no significant effect”. The “recruitment of CD8+ T cells by chemokine released from scaffold” value in experiment [2] (CCL21 versus SDF-1a (CXCL12), otherwise identical scaffolds) is “favors recruitment of CD8+ T cells more than SDF-1α; also recorded: favored recruitment of CD8+ T cells and disfavored CD4+ T cells as compared with CXCL12”. Also, the “T cell recruitment and tumor clearance compared to control scaffolds” value in experiment [2] is “successfully recruited T cells and helped clear tumors”.
